In the NIST ThermoML archive (doi:10.1016/j.jct.2012.06.020):
Numbers after ± are expanded uncertainties.

Conditions: 101.33 kPa, Liquid, Vibrating tube method

Structure (SMILES): C[S+](C)[O-] [dimethyl sulfoxide]
- mass density (293.15 K): 1100.22 ± 1 kg/m3
- mass density (298.15 K): 1095.19 ± 1 kg/m3
- mass density (303.15 K): 1090.16 ± 1 kg/m3
- mass density (313.15 K): 1080.12 ± 1 kg/m3
- mass density (323.15 K): 1070.07 ± 0.98 kg/m3
- mass density (333.15 K): 1060.03 ± 0.96 kg/m3
